The results in this text go back to ChEMBL document CHEMBL1201862, “PubChem BioAssay data set” (2004).

Some test systems named below: RPMI-8226; NCI-H23; EKVX; UO-31; CCRF-CEM; ACHN; SR; HOP-62; SK-OV-3; KM12; A498; HCT-15; TK-10; SNB-75; NCI-H460; HCT-116; SF-295; NCI-H226.
Holding throughout (assay): inhibition of tumour cell growth, NCI panel, 48 h

SMILES strings stand for the structures.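 Protocol summary: plate cells (96-well), add compound at 5 concentrations, incubate 48 h, interpolate endpoints linearly. GI50: concentration for 50% inhibition of growth.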 The source made the active and inactive calls. Cut-off read from the data, not from the text of the source: active = GI50 up to about 1.1 µM and inactive = higher.

Regarding `Cn1c(=O)c2[nH]cnc2n(CC(N)=O)c1=O`, the GI50 in the assay with RPMI-8226, with NCI-H23, in the assay on EKVX, in the assay on UO-31, with CCRF-CEM and in the assay on ACHN was > 100 µM (inactive) each time. Further, the GI50 in the assay on SR is > 100 µM (inactive); in the assay on HOP-62 it was > 100 µM (inactive); in the assay on SK-OV-3, > 100 µM (inactive); in the assay on KM12, > 100 µM (inactive); in the assay with A498, > 100 µM (inactive); in the assay with HCT-15, above 100 µM. Further, the GI50 in the assay on TK-10, in the assay on SNB-75, in the assay with NCI-H460 and in the assay on HCT-116 was > 100 µM (inactive) in each case.

Turning to `O=C(CO[N+](=O)[O-])OCC(=O)c1ccccc1`, the GI50 with RPMI-8226, in the assay with NCI-H23, with EKVX, in the assay with UO-31, in the assay on CCRF-CEM and in the assay with ACHN was > 100 µM (inactive) throughout. Besides, the GI50 in the assay with SR, in the assay with SF-295, in the assay with HOP-62, with SK-OV-3, in the assay with KM12 and in the assay with NCI-H226 was > 100 µM (inactive) in each case. The GI50 in the assay with HCT-15 is above 100 µM; with TK-10, > 100 µM (inactive); in the assay with SNB-75, > 100 µM (inactive); in the assay on NCI-H460, > 100 µM (inactive); in the assay on HCT-116 it was > 100 µM (inactive).

Consider `CC(C)C1CO[C@]2(C)CCC(=O)N12` (stereo partly specified), for which the GI50 in the assay with RPMI-8226, in the assay with NCI-H23, in the assay with EKVX, in the assay with UO-31, with CCRF-CEM and in the assay on ACHN was > 100 µM (inactive) each time. For the same compound, the GI50 in the assay with SR, in the assay on SF-295, in the assay on HOP-62, in the assay with SK-OV-3, with KM12 and in the assay on NCI-H226 was > 100 µM (inactive) in each case. In addition, the GI50 in the assay on HCT-15 is above 100 µM; in the assay with TK-10, > 100 µM (inactive); with SNB-75 it was > 100 µM (inactive); in the assay with NCI-H460, > 100 µM (inactive); with HCT-116, > 100 µM (inactive).

Regarding `Cc1cc(=O)oc2cc(OCc3nc4ccccc4c(=O)n3-c3ccccc3)ccc12`, the GI50 in the assay with RPMI-8226 was > 100 µM (inactive); in the assay with NCI-H23, > 100 µM (inactive); in the assay on EKVX, > 100 µM (inactive); with CCRF-CEM it was > 100 µM (inactive); with ACHN, > 100 µM (inactive); with SF-295, 58.2 µM (inactive). The GI50 is 97.7 µM (inactive) in the assay with HOP-62; 53.6 µM (inactive) in the assay with SK-OV-3; > 100 µM (inactive) with KM12; > 100 µM (inactive) in the assay with A498; > 100 µM (inactive) in the assay with NCI-H226; above 100 µM in the assay on HCT-15. The GI50 with TK-10 was > 100 µM (inactive); in the assay with SNB-75, 20.7 µM (inactive); in the assay on NCI-H460, > 100 µM (inactive); in the assay on HCT-116, > 100 µM (inactive).

Take `CCN(CC)CC(C(=O)Nc1c(C)cccc1C)/C(C)=N\NC(=O)C[N+](C)(C)C` (stereo unspecified): the GI50 with RPMI-8226, in the assay on NCI-H23, in the assay with UO-31, in the assay on ACHN, with SR and with SF-295 was > 100 µM (inactive) in each case. Moreover, the GI50 in the assay with HOP-62 is > 100 µM (inactive); in the assay on SK-OV-3, > 100 µM (inactive); in the assay with KM12, > 100 µM (inactive); in the assay with NCI-H226, > 100 µM (inactive); in the assay on HCT-15, above 100 µM; in the assay on TK-10 it was > 100 µM (inactive). Besides, the GI50 in the assay with SNB-75, with NCI-H460 and in the assay on HCT-116 was > 100 µM (inactive) in each case.

On to `CCOc1ccc(NC(=O)/C(Cc2nc3ccccc3nc2O)=N\O)cc1`, for which the GI50 in the assay with RPMI-8226 is > 100 µM (inactive); in the assay with NCI-H23, > 100 µM (inactive); in the assay with EKVX it was 75 µM (inactive); in the assay with UO-31, > 100 µM (inactive); with CCRF-CEM, > 100 µM (inactive); in the assay with ACHN, > 100 µM (inactive). Moreover, the GI50 is > 100 µM (inactive) in the assay on HOP-62; > 100 µM (inactive) with SK-OV-3; > 100 µM (inactive) with KM12; > 100 µM (inactive) in the assay on A498; above 100 µM with HCT-15; > 100 µM (inactive) in the assay on TK-10. The GI50 is 70.1 µM (inactive) in the assay on SNB-75, > 100 µM (inactive) in the assay with NCI-H460 and > 100 µM (inactive) with HCT-116.

Consider `CCOC(=O)C1S/C(=N\c2ccc(Cl)cc2)N=C1C` (stereo unspecified), for which the GI50 in the assay on RPMI-8226 is 27.9 µM (inactive); in the assay on NCI-H23, 18 µM (inactive); with EKVX it was 21.4 µM (inactive); in the assay with UO-31, 19 µM (inactive); in the assay with ACHN, 20.5 µM (inactive); in the assay with SF-295 it was 19.6 µM (inactive). For the same compound, the GI50 with HOP-62 was 20.2 µM (inactive); in the assay on KM12 it was 18.2 µM (inactive); in the assay on A498, 18.3 µM (inactive); in the assay on NCI-H226 it was 25.6 µM (inactive); in the assay on HCT-15, 16.1 µM; with TK-10 it was 28.4 µM (inactive). Further, the values for the GI50 in the assay on SNB-75, in the assay with NCI-H460 and with HCT-116 were 21.3 µM (inactive), 23.6 µM (inactive) and 16.6 µM (inactive), respectively.

`N/N=C(\CC1OC(=O)c2ccccc21)c1ccco1` (stereo unspecified): the GI50 with NCI-H23 was > 100 µM (inactive); with EKVX it was > 100 µM (inactive); with UO-31, > 100 µM (inactive); in the assay on CCRF-CEM it was 59.2 µM (inactive); in the assay with ACHN, > 100 µM (inactive); in the assay on SF-295, > 100 µM (inactive). For the same compound, the GI50 was > 100 µM (inactive) in the assay on SK-OV-3; > 100 µM (inactive) in the assay with KM12; > 100 µM (inactive) in the assay with A498; > 100 µM (inactive) in the assay with NCI-H226; above 100 µM in the assay with HCT-15; > 100 µM (inactive) with TK-10. Further, the GI50 with SNB-75, in the assay with NCI-H460 and in the assay with HCT-116 was > 100 µM (inactive) in each case.

For the compound `Nn1c(S)nnc1NNC(=O)C(=O)Nc1cc(Cl)c(Cl)cc1Cl`, the GI50 with NCI-H23 was > 100 µM (inactive); in the assay with EKVX, > 100 µM (inactive); with UO-31, > 100 µM (inactive); in the assay with CCRF-CEM, 20 µM (inactive); in the assay on ACHN it was > 100 µM (inactive); in the assay with SF-295 it was > 100 µM (inactive). The GI50 with HOP-62 was > 100 µM (inactive); in the assay with SK-OV-3, > 100 µM (inactive); with KM12, > 100 µM (inactive); in the assay with A498, > 100 µM (inactive); with NCI-H226, > 100 µM (inactive); with HCT-15 it was above 100 µM. The GI50 is > 100 µM (inactive) in the assay on TK-10, 15.5 µM (inactive) with SNB-75, > 100 µM (inactive) in the assay on NCI-H460 and > 100 µM (inactive) with HCT-116.

With `COc1ccc2c(CCNS(=O)(=O)c3ccccc3)c(C(C)=O)[nH]c2c1[N+](=O)[O-]`, the GI50 with RPMI-8226, in the assay with NCI-H23, in the assay on UO-31, in the assay with CCRF-CEM, in the assay with ACHN and in the assay on SR was > 100 µM (inactive) in each case. In addition, the GI50 in the assay with SF-295 was 63.7 µM (inactive); in the assay with HOP-62 it was 86.7 µM (inactive); in the assay on KM12, > 100 µM (inactive); in the assay on A498, > 100 µM (inactive); with NCI-H226, 43.3 µM (inactive); with HCT-15, above 100 µM. Further, the GI50 with NCI-H460 and in the assay with HCT-116 was > 100 µM (inactive) each time.

On to `CC(C)C(Nc1c2ccccc2[n+]([O-])c2ccccc12)C(=O)O` (stereo unspecified), for which the GI50 in the assay on RPMI-8226 is 19.7 µM (inactive); in the assay with NCI-H23, 36 µM (inactive); with EKVX, > 100 µM (inactive); in the assay on UO-31, 55.5 µM (inactive); with CCRF-CEM, 47.8 µM (inactive); in the assay on ACHN, 35.2 µM (inactive). Also, the GI50 with SF-295 is > 100 µM (inactive); in the assay with HOP-62, > 100 µM (inactive); in the assay with SK-OV-3 it was > 100 µM (inactive); in the assay on KM12, > 100 µM (inactive); in the assay with A498 it was > 100 µM (inactive); in the assay on NCI-H226, 35.6 µM (inactive). Moreover, the GI50 in the assay on HCT-15 is 45.9 µM; with TK-10 it was > 100 µM (inactive); with SNB-75, 58.9 µM (inactive); in the assay with NCI-H460, > 100 µM (inactive); with HCT-116, 44.6 µM (inactive).

Turning to `COc1ccc(-c2cc(Cc3cccs3)c(=O)[nH]n2)cc1`, the GI50 in the assay with NCI-H23 was 56.8 µM (inactive); in the assay with EKVX, > 100 µM (inactive); in the assay on UO-31, 82 µM (inactive); in the assay on ACHN, 32.7 µM (inactive); with SF-295, > 100 µM (inactive); with SK-OV-3, > 100 µM (inactive). The GI50 with KM12 is > 100 µM (inactive); in the assay with NCI-H226, > 100 µM (inactive); with HCT-15, 49 µM; in the assay on TK-10, > 100 µM (inactive); in the assay with SNB-75 it was 29.5 µM (inactive); in the assay on HCT-116 it was > 100 µM (inactive).

Consider `COC(=O)c1ccc(OCc2ccc3oc(=O)c(-c4ccccc4)nc3c2)cc1`, for which the GI50 in the assay with RPMI-8226 is 34.9 µM (inactive); in the assay with NCI-H23, 71.3 µM (inactive); in the assay on EKVX, > 100 µM (inactive); with UO-31, > 100 µM (inactive); with CCRF-CEM, 23.5 µM (inactive); in the assay on ACHN, > 100 µM (inactive). For the same compound, the GI50 with SR is 30.8 µM (inactive); with SF-295 it was > 100 µM (inactive); with HOP-62, > 100 µM (inactive); in the assay on KM12, > 100 µM (inactive); in the assay on NCI-H226, > 100 µM (inactive); with HCT-15, above 100 µM. In addition, the GI50 in the assay with TK-10 is 44 µM (inactive); with SNB-75 it was > 100 µM (inactive); in the assay on NCI-H460 it was > 100 µM (inactive); in the assay with HCT-116, > 100 µM (inactive).
